Data reported in PMC5225183, “Fingerprinting of neurotoxic compounds using a mouse embryonic stem cell dual luminescence reporter assay” (Archives of Toxicology, 2016).
Like-named read-outs stand apart in the source and are kept apart here. Marks after values point to notes of the source that are not given here.

What was measured:
CGR8-2Luc ESCs = tested on: CGR8-2Luc ESCs
Source text: (§1) Fig. 1 Synopsis of experimental protocols. The impact of compounds on neural promoter activity (FLuc, Firefly Luciferase under the control of the Tα1 promoter), general promoter activity (RLuc, Renilla Luciferase under the control of the EF1α promoter), and amount of DNA (PI, propidium iodide fluorescence in cell homogenates) was investigated in undifferentiated mouse embryonic pluripotent stem cells (ESCs) and on ESC-derived neurons. Arrows indicate the time of measurement of the three parameters. a Protocol for testing compounds effects on ESCs. CGR8-2Luc cells were plated on gelatin-coated 96-well plates in maintenance medium (BHK21 medium containing 10 % FCS, L-glutamine, NEAA, P/S, and LIF). Twenty-four hours later, cells were exposed to compounds for forty-eight hours. b Protocol for testing compounds on ESC-derived neurons. CGR8-2Luc cells were co-cultured with MS5 cells to induce neural differentiation in DMEM medium containing 15 % KO-serum, NEAA, β-mercaptoethanol, and P/S. On day 5, cells were detached and seeded on polyornithine-coated plates in DMEM medium containing N2 supplement, bFGF, and P/S; compound exposure was from day 6 to day 8
(§2) To test compounds on ESC-derived neurons, neuronal differentiation was carried out as previously described (Suter et al. [2009]; Xu et al. [2014]). Briefly, CGR8-2Luc cells were seeded on irradiated bone marrow-derived stromal MS5 cells and cultivated for 4 days in DMEM medium containing 15 % Knock-out™ Serum Replacement, non-essential amino acids, beta-mercaptoethanol, and penicillin/streptomycin. At day 5, cells were then re-plated (3 × 10^5 cells/cm^2) on polyornithine-coated 96-well plates in N2 medium containing DMEM, N2 supplement, penicillin/streptomycin, and 10 ng/ml basic human fibroblast growth factor (bFGF) (Invitrogen). […] To assess toxicity of compounds on undifferentiated pluripotent stem cells (ESCs), CGR8-2Luc cells were plated at 45,000 cells/cm^2 on 0.1 % gelatin-coated dishes in BHK21 medium, supplemented with 10 % fetal calf serum, L-glutamine, non-essential amino acids, penicillin/streptomycin, and leukemia inhibitory factor (LIF). After 24 h, compounds were added and incubated for 48 h, before luciferase expression and PI fluorescence were analyzed. In all experiments, methylmercury was used as a positive control at a concentration of 5 µM.
(§3) After measurement of luciferase activity, DNA quantity was determined by PI assay, as previously described (Xu et al. [2014]). PI was added to cell homogenates after the luciferase test, at a final concentration of 50 µg/ml and incubated for 2 h. After incubation, fluorescence intensity was measured on a Flexstation 3 microplate reader (Excitation: 544 nm ± 15 nm; Emission: 620 nm ± 15 nm). Results are expressed as percentage of control. Propidium iodide (PI) measures total DNA content as an approximation of the cell number. A decrease in PI fluorescence was interpreted as a decrease in cell number and therefore throughout the text referred to as cytotoxicity.
(§4) Lowest adverse effect level (LOAEL) was defined as the lowest tested concentrations that lead to a statistically significant decrease for a given read-out (FLuc, RLuc, and PI) compared to baseline. “Baseline” was not in all cases defined by untreated cells, but may also refer to, e.g., a state of increased activity due to low, non-toxic compound concentrations.

ESC-derived neurons = tested on: ESC-derived neurons
Source text: as §1, §2, §3, §4

[1] = tested on: ESCs and ESC-derived neurons; experiment: Dual luminescence reporter test system, all readouts in ESCs and ESC-derived neurons
Source text: as §1, with “neurons.” for “neurons. CGR8-2Luc cells were co-cultured with MS5 cells to induce neural differentiation in DMEM medium containing 15 % KO-serum, NEAA, β-mercaptoethanol, and P/S. On day 5, cells were detached and seeded on polyornithine-coated plates in DMEM medium containing N2 supplement, bFGF, and P/S; compound exposure was from day 6 to day 8”
as §2, with “At” for “To test compounds on ESC-derived neurons, neuronal differentiation was carried out as previously described (Suter et al. [2009]; Xu et al. [2014]). Briefly, CGR8-2Luc cells were seeded on irradiated bone marrow-derived stromal MS5 cells and cultivated for 4 days in DMEM medium containing 15 % Knock-out™ Serum Replacement, non-essential amino acids, beta-mercaptoethanol, and penicillin/streptomycin. At”
Luciferase activities were measured with a Dual-Luciferase™ Reporter system kit. CGR8-2Luc ES cells were lysed in 96-well plates according to the manufacturer’s instructions. Luminescence measurements were performed on a Fluostar Optima reader. Luminescence counts were expressed as percentage of promoter activity normalized by comparison with the control wells treated by DMSO. […] parameters were measured in homogenates of ESCs and in ESC-derived neurons: (1) FLuc, reflecting the activity of early neural promoter Tα1. FLuc increases during neuronal differentiation. Many neurotoxic compounds may affect FLuc expression, either through impact on neuronal differentiation, through changes of neuronal gene expression, or through killing of neurons.
as §3, with “PI” for “After measurement of luciferase activity, DNA quantity was determined by PI assay, as previously described (Xu et al. [2014]). PI”
To describe the shape of different concentration–response curves, arbitrary scores were assigned as follows: 0 for “no change,” 1 for “down-stroke,” 2 for “bimodal profile,” and 3 for “up-stroke” (Fig. S1). A curve was classified as “down-stroke” or “up-stroke” if the change in response values comparative to control was statistically significant (p value <0.05, one-way ANOVA with post hoc Dunnett) with an additional requirement of a 30 % decrease or increase of mean response value relative to controls, respectively. If the absolute change in mean response values was below 30 % the curve was classified as “no change.” A curve was classified as “bimodal” if first up-stroke and subsequently down-stroke was observed.

[2] = Table S1, three classes; ref per compound in the footnotes of Table S1; cited from earlier work
[3] = tested on: Tubulin α1 (Tα1) promoter
Source text: (§5) Dual luciferase expressing CGR8-2Luc cells were obtained by transduction of mouse ESC CGR8 cells with the 2K7 EFS-Renilla Luciferase (RLuc)/Talpha1-Firefly Luciferase (FLuc) vector as previously described (Suter et al. [2006], [2009]); EFS corresponds to the short promoter of the eukaryotic translation elongation factor 1 alpha (EF1α), and Talpha1 to the Tubulin α1 (Tα1) promoter. Tα1 was selected as a promoter active in neurons, including early stages of neural differentiation. EF1α was originally selected to function as a constitutive promoter; however, it responds to cellular differentiation as well as to various chemicals, as previously shown (Kern et al. [2013]). Cells were cultured on 0.1 % gelatin-coated dishes in CGR8-2luc maintenance medium: BHK21 medium, supplemented with 10 % fetal calf serum, L-glutamine, non-essential amino acids, penicillin/streptomycin, and leukemia inhibitory factor (LIF). CGR8 cells were grown in a feeder-independent manner (embryonic pluripotent stem cells, ESCs) as described in protocol 1 (Fig. 1) before testing compounds of interest.
as §1, §2
(§6) Luciferase activities were measured with a Dual-Luciferase™ Reporter system kit. CGR8-2Luc ES cells were lysed in 96-well plates according to the manufacturer’s instructions. Luminescence measurements were performed on a Fluostar Optima reader. Luminescence counts were expressed as percentage of promoter activity normalized by comparison with the control wells treated by DMSO.

EF1α promoter = tested on: EF1α promoter
Source text: as §5, §1, §2, §6

[4] = tested on: Tubulin α1 (Tα1) promoter; experiment: cells
Source text: as §5, §1, §2, §6

[5] = cited from earlier work
[6] = undifferentiated ESCs, 48 h exposure, PI assay (cytotoxicity)
[7] = ESC-derived neurons, 48 h exposure, PI assay (cytotoxicity)
[8] = undifferentiated ESCs, 48 h exposure, lowest tested concentration with statistically significant decrease
[9] = ESC-derived neurons, 48 h exposure
[10] = undifferentiated ESCs, 48 h exposure
[11] = reporter activity changes in the non-cytotoxic concentration range, highest possible number 4

SMILES | class based on clinical evidence for neurotoxicity [2] | LOAEL ESC DNA (CGR8-2Luc ESCs; [6]) | LOAEL Neurons DNA (ESC-derived neurons; [7]) | Number of non-cytotoxic changes ([1]; mouse, 48 h) | LOAEL ESC Tα1 [3, 8] | LOAEL Neurons EF1α (EF1α promoter; [9]) | LOAEL ESC EF1α (EF1α promoter; [10]) | LOAEL Neurons Tα1 [4, 9] | result in the dual luminescence reporter test system [1] | LOAEL ESC DNA (CGR8-2Luc ESCs; mouse) | LOAEL Neurons DNA (ESC-derived neurons; mouse) | LOAEL ESC Tα1 ([3]; mouse) | LOAEL ESC EF1α (EF1α promoter; mouse) | LOAEL Neurons EF1α (EF1α promoter; mouse) | LOAEL Neurons Tα1 ([4]; mouse) | other results
O=C(O)c1cc[c]([Hg][Cl])cc1 [4-chloromercuric benzoic acid] | Possibly (developmental) |  |  |  |  |  |  |  |  |  |  |  |  |  |  | LOAEL ESC DNA (CGR8-2Luc ESCs): 5 µM; LOAEL Neurons DNA (ESC-derived neurons): 100 µM; Number of non-cytotoxic changes [1]: 1; LOAEL ESC Tα1 [3]: 5 µM; LOAEL ESC EF1α (EF1α promoter): 5 µM; LOAEL Neurons EF1α (EF1α promoter): 100 µM; LOAEL Neurons Tα1 [4]: 10 µM
CN(C)CCCN1c2ccccc2Sc2ccc(Cl)cc21 [Chlorpromazine] | Well-established (developmental) | 20 µM | 20 µM | 1 | 20 µM | 2 µM | 20 µM | 1 µM |  |  |  |  |  |  |  | 
OC[C@@H](O)[C@@H](O)[C@H](O)[C@H](O)CO [D-mannitol] | Non-neurotoxic | >50 µM | >50 µM | 0 | >50 µM | >50 µM | >50 µM | >50 µM | negative |  |  |  |  |  |  | 
O=C(O)c1cccnc1 [Nicotinic acid] | Non-neurotoxic |  |  | 0 |  |  |  |  | negative | >50 µM | >50 µM | >50 µM | >50 µM | >50 µM | >50 µM | 
Clc1cc(Cl)c(-c2cc(Cl)c(Cl)cc2Cl)cc1Cl [PCB-153] | Well-established (developmental) |  |  |  |  |  |  |  |  |  |  |  |  |  |  | effect on cell number in neurons (ESC-derived neurons): without affecting the number of cells; result in the dual luminescence reporter test system ([1]; ESCs and neurons, FLuc, RLuc, PI): potentially neurotoxic; Number of non-cytotoxic changes [1, 11]: 2; Concentration in humans (human exposure concentration) ([5]; human exposure concentration, ref Zimmer et al. ([2014])): 0.0003-0.002^k (human exposure concentration) µM; effect on general promoter activity in neurons (EF1α promoter): decreased; effect on neural promoter activity in neurons [4]: decreased
O=C1NS(=O)(=O)c2ccccc21 [Saccharin] | Non-neurotoxic |  |  | 0 |  |  |  |  | negative | >50 µM | >50 µM | >50 µM | >50 µM | >50 µM | >50 µM | Concentration in humans ([5]; ref Sweatman et al. ([1981])): 218^c µM
Nc1ccc(S(=O)(=O)Nc2ncccn2)cc1 [Sulfadiazine] | Possibly (developmental) |  |  | 0 |  |  |  |  |  | >50 µM | >50 µM | >50 µM | >50 µM | >50 µM | >50 µM | Concentration in humans ([5]; ref Zimmer et al. ([2014])): 320^k µM
CCC[C@H](NC(=O)[C@@H]1[C@H]2CCC[C@H]2CN1C(=O)[C@@H](NC(=O)[C@@H](NC(=O)c1cnccn1)C1CCCCC1)C(C)(C)C)C(=O)C(=O)NC1CC1 [Telaprevir] |  | 50 µM | 50 µM | 0 | 50 µM |  | 50 µM | 50 µM |  |  |  |  |  |  |  | Concentration in humans ([5]; in vivo): 5.1^k µM; LOAEL Neurons EF1α (EF1α promoter; mouse, 48 h): 50 µM
[CH3][Sn]([CH3])([CH3])[Cl] [Trimethyltin chloride] | Well-established (developmental) | 5 µM | 5 µM |  | 5 µM | 0.05 µM | 5 µM | 5 µM |  |  |  |  |  |  |  | Number of non-cytotoxic changes [1, 11]: 1; EF1α promoter LOAEL in neurons (EF1α promoter; [9]): 50 nM
